Source: US11078183B2, “Tetrahydrate of H3 ligand, its process of preparation and pharmaceutical compositions comprising the same” (BIOPROJET, priority 2017, dated 2021)
Counter-ions that a name gives are not always drawn. Like-named read-outs stand apart in the source and are kept apart here.

Experiments:
histamine H3 = histamine H3 (Homo sapiens, UniProt Q9Y5N1); details: among the H3 ligands disclosed in WO 2006/117609; cited from earlier work
[1] = Stability studies according to ICH (purity on anhydrous substance over time); format: physicochemical; details: for purity on anhydrous substance: specifications 98.0-102.0%; for degradation observed (in words): up to 6 months
Procedure: Stability studies have been performed according to ICH.
Similar results were obtained for the 3 months sample at 30° C./65% relative humidity:
Stability has been assessed under ICH conditions.

[2] = Hygroscopy: water content over storage time; format: physicochemical
Description: This compound is hygroscopic. It uptakes water during time.

[3] = Degradation on drying (main impurity over drying time); format: physicochemical
[4] = as above; format: physicochemical; details: for Main impurity: drying at 60° C.
Procedure: Drying was not complete at 60° C. over 24 hours.

[5] = 40° C./75% relative humidity, 0 months
[6] = 40° C./75% relative humidity, 1 month
[7] = 40° C./75% relative humidity, 3 months
[8] = 40° C./75% relative humidity, 6 months

Sequence of histamine H3 (Q9Y5N1 whole entry): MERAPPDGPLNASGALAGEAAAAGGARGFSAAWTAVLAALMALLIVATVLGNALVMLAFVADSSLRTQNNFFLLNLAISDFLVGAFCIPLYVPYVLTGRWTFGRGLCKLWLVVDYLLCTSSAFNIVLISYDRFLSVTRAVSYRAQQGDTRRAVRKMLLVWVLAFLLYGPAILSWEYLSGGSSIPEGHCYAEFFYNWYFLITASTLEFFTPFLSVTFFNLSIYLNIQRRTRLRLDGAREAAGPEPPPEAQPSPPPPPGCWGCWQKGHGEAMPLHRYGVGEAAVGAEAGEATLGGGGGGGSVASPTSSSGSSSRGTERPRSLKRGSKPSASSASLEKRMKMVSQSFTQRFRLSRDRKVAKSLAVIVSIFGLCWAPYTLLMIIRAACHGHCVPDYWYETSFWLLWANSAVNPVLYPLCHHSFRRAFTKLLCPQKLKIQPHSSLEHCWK

Which “potency as H3 ligand (in words)” value (histamine H3) does the source give for `C[C@H]1CCCN(CCCOc2ccc(-c3cc[n+]([O-])cc3)cc2)C1` [(3S)-4-{4-[3-(3-methylpiperidin-1-yl)propoxy]phenyl}pyridine 1-oxide] here?
Its value is “very potent”.

Which “purity on anhydrous substance” value [1, 5] does the source give for `C[C@H]1CCCN(CCCOc2ccc(-c3cc[n+]([O-])cc3)cc2)C1` [Example 1, (3S)-4-{4-[3-(3-methylpiperidin-1-yl)propoxy]phenyl}pyridine 1-oxide, dihydrochloride, tetrahydrate] here?
Its value is 99.6.

And the “purity on anhydrous substance” value [1, 6]?
The value was 100.3.

What about the “purity on anhydrous substance” value [1, 7] of the same compound?
The value was 99.7.

What about the “purity on anhydrous substance” value [1, 8] of the same compound?
Its value is 100.3.

What about the “degradation observed (in words)” value ([1]; 40° C./75% relative humidity) of the same compound?
The value was “no degradation is observed”.

And the “hygroscopicity (in words)” value [2]?
Its value is “not hygroscopic”.

What about the water content [2, 5] of the same compound?
Its water content is 16 % in weight.

What about the water content [2, 6] of the same compound?
The water content was 16 % in weight.

What about the water content [2, 7] of the same compound?
Its water content is 15 % in weight.

And the water content [2, 8]?
The water content was 16 % in weight.

And the water content ([2]; 40° C./75% relative humidity, 12 months)?
Its water content is 15 % in weight.

And the “water content modification (in words)” value ([2]; 40° C./75% relative humidity, up to 12 months)?
The value was “no water content modification is observed”.

With `C[C@H]1CCCN(CCCOc2ccc(-c3cc[n+]([O-])cc3)cc2)C1` [Example 52 of WO 2006/117609, (3S)-4-{4-[3-(3-methylpiperidin-1-yl)propoxy]phenyl}pyridine 1-oxide, dihydrochloride] as the compound, how does the “outcome of drying (in words)” value ([3]; drying at 80° C. or 100° C., complete removal of water) read?
Its value is “some decomposition occurred”.

What about the Main impurity ([3]; drying at 80° C., 0 hr) of the same compound?
Its Main impurity is 0.08%.

What about the Main impurity ([3]; drying at 80° C., 8 hr) of the same compound?
The Main impurity was 0.11%.

And the Main impurity ([3]; drying at 80° C., 16 hr)?
Its Main impurity is 0.12%.

And the Main impurity ([3]; drying at 80° C., 24 hr)?
The Main impurity was 0.14%.

And the Main impurity ([3]; drying at 100° C., 0 hr)?
The Main impurity was 0.08%.

What about the Main impurity ([3]; drying at 100° C., 8 hr) of the same compound?
Its Main impurity is 0.32%.

What about the Main impurity ([3]; drying at 100° C., 16 hr) of the same compound?
Its Main impurity is 0.44%.

And the “purity on anhydrous substance” value ([1]; 30° C./65% relative humidity, 0 months)?
Its value is 100.2.

And the “purity on anhydrous substance” value ([1]; 30° C./65% relative humidity, 3 months)?
Its value is 98.4.

What about the “purity on anhydrous substance” value ([1]; 40° C./75% relative humidity, 0 months, dihydrochloride) of the same compound?
Its value is 100.2.

What about the “purity on anhydrous substance” value ([1]; 40° C./75% relative humidity, 1 month, dihydrochloride) of the same compound?
The value was 100.8.

What about the “purity on anhydrous substance” value ([1]; 40° C./75% relative humidity, 3 months, dihydrochloride) of the same compound?
The value was 98.2.

What about the “purity on anhydrous substance” value ([1]; 40° C./75% relative humidity, 6 months, dihydrochloride) of the same compound?
Its value is 98.4.

And the “degradation observed (in words)” value ([1]; 40° C./75% relative humidity, dihydrochloride)?
The value was “some degradation is observed”.

What about the loss of purity ([1]; within six months, 40° C./75% relative humidity) of the same compound?
The loss of purity was 2%.

And the water content ([2]; batch stored under Good Manufacturing Practice, 0 months)?
Its water content is 1 % in weight.

What about the water content ([2]; batch stored under Good Manufacturing Practice, 6 months) of the same compound?
Its water content is 2 % in weight.

What about the water content ([2]; batch stored under Good Manufacturing Practice, 11 months) of the same compound?
The water content was 4 % in weight.

And the “hygroscopicity (in words)” value ([2]; dihydrochloride)?
The value was “hygroscopic”.

What about the “hygroscopicity (in words)” value ([2]; listed as dihydrochloride salt, dihydrochloride) of the same compound?
Its value is “too hygroscopic”.

What about the “completeness of drying (in words)” value ([4]; drying at 60° C. over 24 hours) of the same compound?
Its value is “not complete”.

What about the Main impurity ([4]; 0 hr) of the same compound?
Its Main impurity is 0.08%.

What about the Main impurity ([4]; 8 hr) of the same compound?
Its Main impurity is 0.08%.

What about the Main impurity ([4]; 12 hr) of the same compound?
Its Main impurity is 0.08%.

What about the Main impurity ([4]; 24 hr) of the same compound?
The Main impurity was 0.10%.
